# Measured values published in paper PMC8569811, “The Nonphysiological Reductant Sodium Dithionite and [FeFe] Hydrogenase: Influence on the Enzyme Mechanism” (Journal of the American Chemical Society, 2021).
# How the values were obtained:
# [1] = biological target: T1, CpHydA1 ([FeFe] hydrogenase HydA1) (Clostridium pasteurianum, UniProt P29166); assay: IR spectroscopy, conversion to HoxH with Na2SO3 at low pH; type: binding
# T1 sequence (P29166 1-574): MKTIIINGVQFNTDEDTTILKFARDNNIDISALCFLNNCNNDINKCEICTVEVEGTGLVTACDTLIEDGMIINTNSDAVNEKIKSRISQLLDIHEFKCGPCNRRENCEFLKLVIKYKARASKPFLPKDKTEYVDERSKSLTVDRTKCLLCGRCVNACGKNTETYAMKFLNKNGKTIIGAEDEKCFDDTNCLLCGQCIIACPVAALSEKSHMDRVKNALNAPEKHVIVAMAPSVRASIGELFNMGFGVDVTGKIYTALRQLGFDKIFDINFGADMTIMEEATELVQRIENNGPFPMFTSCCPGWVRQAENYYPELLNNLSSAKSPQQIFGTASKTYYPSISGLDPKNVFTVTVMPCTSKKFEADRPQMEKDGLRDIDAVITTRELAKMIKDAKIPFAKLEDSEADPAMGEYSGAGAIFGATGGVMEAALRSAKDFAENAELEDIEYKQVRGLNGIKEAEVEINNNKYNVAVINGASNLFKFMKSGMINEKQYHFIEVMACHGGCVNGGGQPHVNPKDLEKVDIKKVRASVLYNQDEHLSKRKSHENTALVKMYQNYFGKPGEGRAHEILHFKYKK
# [2] = biological target: T2, CrHydA1 ([FeFe] hydrogenase) (Chlamydomonas reinhardtii, UniProt Q9FYU1); assay: IR titration with Na2SO3 (source of SO2) at pH […] and […] fit; type: binding
# T2 construct: gene hyd1; CrHydA1^PDT (chemical variant with propane dithiolate bridging ligand in [2Fe]H)
# T2 sequence (Q9FYU1 57-497): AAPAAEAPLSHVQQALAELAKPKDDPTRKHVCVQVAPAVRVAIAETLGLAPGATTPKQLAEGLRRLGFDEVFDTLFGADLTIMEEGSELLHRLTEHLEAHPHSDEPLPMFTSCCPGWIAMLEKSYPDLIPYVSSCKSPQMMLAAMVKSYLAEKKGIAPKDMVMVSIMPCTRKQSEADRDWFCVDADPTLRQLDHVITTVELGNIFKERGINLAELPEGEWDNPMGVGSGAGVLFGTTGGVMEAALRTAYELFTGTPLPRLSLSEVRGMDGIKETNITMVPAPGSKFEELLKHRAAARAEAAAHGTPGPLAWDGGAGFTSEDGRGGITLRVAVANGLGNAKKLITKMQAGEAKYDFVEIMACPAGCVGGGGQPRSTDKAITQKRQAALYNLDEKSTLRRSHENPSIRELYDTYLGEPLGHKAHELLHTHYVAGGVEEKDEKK
compound,measurement,setting,value
O=S=O [SO2],"IR spectroscopy, conversion to HoxH with Na2SO3 at low pH",[1],SO2 binding caused formation of HoxH not only with CrHydA1 but also with the bacterial enzymes CpHydA1 and DdHydAB
same,Kd,[2],~500 nM
